Results taken from PubChem BioAssay (NCI).
“And” between values parts separate entries of the source, which are not always exact repeats. Equal entries are not always repeated.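 In this assay, cells in 96-well plates receive the compound at five concentrations for 48 hours. Endpoints are linearly interpolated between the surrounding concentrations. The concentration for 50% growth inhibition is given as GI50. The concentration for full growth arrest is given as TGI.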

Experiments:
Assay in all cases: NCI-60 cell line screen, 48 h
[1] = test system: HCC-2998 colon
[2] = test system: OVCAR-8 ovarian
[3] = test system: U251 CNS
[4] = test system: HCT-116 colon
[5] = test system: HL-60(TB) leukemia
[6] = test system: HT29 colon
[7] = test system: A549 NSCLC
[8] = test system: SNB-19 CNS
[9] = test system: SK-OV-3 ovarian
[10] = test system: NCI-H522 lung

Row | Compound | GI50 [1] [µM] | TGI [1] [µM] | GI50 [2] [µM] | TGI [2] [µM] | GI50 [3] | TGI [3] | GI50 [4] | TGI [4] | GI50 [5] | TGI [5] | GI50 [6] | TGI [6] | GI50 [7] [µM] | TGI [7] | GI50 [8] [µM] | TGI [8] [µM] | GI50 [9] | TGI [9] | GI50 [10] [µM] | TGI [10] [µM]
1 | Cc1ccc2nc(NC(=O)CSC(=S)N3CCN(Cc4ccccc4)CC3)sc2c1 | > 100 | > 100 | > 100 | > 100 | > 100 µM | > 100 µM | > 96.7 µM | > 100 µM | > 83.6 µM | > 100 µM | 75.2 µM | > 100 µM | > 100 | > 100 µM | > 100 | > 100 | > 100 µM | > 100 µM | > 100 | > 100
2 | CCC1N2CCCCC2[C@@H]2c3[nH]c4ccccc4c3CCN12 (some centres undefined) | – | > 100 | – | > 100 | – | > 100 µM | – | > 100 µM | – | > 100 µM | – | > 100 µM | – | > 100 µM | – | > 100 | – | > 100 µM | – | > 100
3 | CC(C)(C)c1ccc(NC(=O)c2cc(=O)c3ccccc3[nH]2)c(C(C)(C)C)c1O | 3.04 | 10.4 | 3.28 | 12.2 | 3.59 µM | 12.9 µM | 3.71 µM | 13.4 µM | 4.27 µM | 17.2 µM | 2.21 µM | 4.78 µM | 3.23 | 12.6 µM | 13.7 | 30 | 13.8 µM | 26.8 µM | 8.04 | 20.8
4 | CC(C)[C@H](COC(C)(C)C)N=CN1CSc2ccccc21 | – | > 100 | – | > 100 | – | > 100 µM | – | 79.2 µM | – | 57.1 µM | – | > 100 µM | – | > 100 µM | – | > 100 | – | 78.3 µM | – | > 100
5 | COc1ccc(OC)c(-c2cn3nc(-c4c[nH]c5ccc(Br)cc45)sc3n2)c1 | 2.67 | 7.75 | 3.01 | 9.3 | 2.02 µM | 4.09 µM | 1.67 µM | 3.28 µM | 9.21 µM | > 100 µM | 2.28 µM | 4.75 µM | 2.31 | 5.31 µM | 4.51 | 18.6 | 9.01 µM | 22.8 µM | 1.98 | 4.81
6 | CCCCCCCCCCSS(=O)(=O)c1ccc(C)cc1 | – | 39.3 | – | 32.2 | – | 14.3 µM | – | 26.8 µM | – | 11.6 µM | – | 23.9 µM | – | 29.8 µM | – | 27.6 | – | 42.9 µM | – | 17.2
7 | O=C(O/N=C1/CCC/C1=C\c1ccccc1)c1ccc(Cl)cc1 | – | > 100 | – | > 100 | – | > 89.8 µM | – | > 100 µM | – | > 100 µM | – | > 100 µM | – | > 100 µM | – | > 100 | – | > 100 µM | – | > 100
8 | CCOc1ccc2c(-c3ccnc(Nc4cccc(C(F)(F)F)c4)n3)cnn2n1 | 22.4 | > 25 | 5.44 | 11.7 | 6.43 µM | > 22.5 µM | 6.04 µM | 15.2 µM | > 25 µM | > 25 µM | 10.1 µM | > 25 µM | 4.4 | 9.19 µM | 13.6 | > 25 | 8.11 µM | 18.9 µM | 6.33 | > 23.1
9 | NC(CCc1nc(-c2ccccc2)cs1)C(=O)O (centres undefined) | – | > 100 | – | > 100 | – | > 100 µM | – | > 100 µM | – | > 100 µM | – | > 100 µM | – | > 100 µM | – | > 100 | – | > 100 µM | – | > 100
10 | Cc1cc(Cl)ccc1OCC(=O)Oc1c(Cl)c(Cl)c(Cl)c(Cl)c1Cl | – | 48.9 | – | 66.8 | – | 70.4 µM | – | 45.8 µM | – | > 100 µM | – | 69.1 µM | – | 66.3 µM | – | 75.5 | – | 83.8 µM | – | 48.4
11 | CCCCCCCCCCCCCCCC[N+](C)(C)C | 1.71 | 3.73 | 0.212 | 0.536 | 0.139 µM and 0.567 µM | 0.271 µM and 1.97 µM | 0.258 µM and 1.01 µM | 1.04 µM and 2.57 µM | 0.148 µM and 0.371 µM | 0.336 µM and 1.81 µM | 0.0658 µM and 0.516 µM | 1.03 µM and 1.97 µM | – | 0.417 µM and 3.78 µM | 0.129 | 0.255 | 0.314 µM and 2.12 µM | 1.35 µM and 6.2 µM | 0.139 | 0.329
12 | CC(C)NCCCNC1=C(Cl)C(=O)c2ccccc2C1=O | 2.14 | 4.49 | 2.13 | 5.1 | 2.7 µM | 6.82 µM | 2.12 µM | 5.28 µM | 2.2 µM | 5.03 µM | 2.5 µM | 5.12 µM | 11.2 | 33.5 µM | 12.8 | 26 | 15.8 µM | 29.4 µM | 8.69 | 21.8
13 | CN(C)c1ccc2c(SCC(=O)OCC(=O)[C@@]3(O)CC[C@H]4[C@@H]5CCC6=CC(=O)C=C[C@]6(C)[C@H]5C(=O)C[C@@]43C)c3ccc(N(C)C)cc3nc2c1 | – | > 100 | – | 37 | – | > 100 µM | – | > 100 µM | – | > 20.5 µM | – | 25.4 µM | – | > 100 µM | – | > 94.5 | – | > 100 µM | – | > 100
14 | C=C(C)[C@@H]1CC[C@]2(C)[C@H](CC=C3[C@@H]4CC(C)(C)CC[C@]4(C(=O)OC)CC[C@]32C)[C@@]1(C)CC/C(N)=N/O | 1.86 | 3.67 | 2.27 | 6.29 | 1.81 µM | 3.69 µM | 1.61 µM | 3.05 µM | 2.47 µM | 7.62 µM | 1.88 µM | 5.11 µM | 2.15 | 7.75 µM | 2.21 | 5.73 | 4.62 µM | 27.2 µM | 1.58 | 4.12
15 | C#Cc1cccc(N2C(=O)CC(=P(c3ccccc3)(c3ccccc3)c3ccccc3)C2=O)c1 | – | > 100 | – | > 100 | – | > 100 µM | – | > 100 µM | – | 38.2 µM | – | > 100 µM | – | > 100 µM | – | > 100 | – | > 100 µM | – | > 100
16 | O=c1cc(-c2ccccc2)oc2cc(OCc3cn(Cc4ccc(F)cc4)nn3)cc(O)c12 | > 100 | > 100 | 3.76 | > 100 | 13.9 µM | > 100 µM | 5.91 µM | > 100 µM | > 100 µM | > 100 µM | > 100 µM | > 100 µM | 19.6 | > 100 µM | 4.51 | 83.2 | 6.57 µM | > 100 µM | 6.6 | > 100
